“And” between values parts separate entries of the source, which are not always exact repeats. Identical values can stand only once.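 Tested at 5 concentrations; 48 h exposure; 96-well plates; endpoints linearly interpolated, else capped at highest concentration. At the GI50, growth is halved. At the TGI there is no net growth.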
Legend:
Assay in all cases: DTP human tumour cell line panel, 48 h
[1] = test system: NCI-H23 lung
[2] = test system: IGROV1 ovarian
[3] = test system: UO-31 renal
[4] = test system: SW-620 colon
[5] = test system: SK-MEL-2 melanoma
[6] = test system: SNB-19 CNS
[7] = test system: SF-268 CNS
[8] = test system: NCI-H522 lung
[9] = test system: MDA-MB-231 breast
[10] = test system: PC-3 prostate

CCN(CC)c1ccc(N=C2C=C(Cl)C(=O)c3ncccc32)c(C)c1
TGI [1]: 11.3 µM
TGI [2]: 32 µM
TGI [3]: 41.6 µM
TGI [4]: 17.3 µM
TGI [5]: > 100 µM
TGI [6]: 89.4 µM

CC1[C@@H]2CC=C3[C@H]4CCC5Cc6nc7c(nc6C[C@@]5(C)C4(O)CC(=O)[C@]32CO[C@]12OC(C)(C)CC2O)CC1CC[C@@H]2C3=C[C@H]4O[C@@]5(O[C@@](C)(CO)C[C@@H]5O)C(C)[C@@]4(O)[C@]3(C)[C@@H](O)CC2[C@]1(C)C7 (stereo partly specified)
GI50 [1]: 0.00071 µM and 0.00224 µM
TGI [1]: 0.143 µM and 0.377 µM
GI50 [2]: 0.00258 µM and 0.0049 µM
TGI [2]: > 3.6 µM
GI50 [4]: 0.000172 µM and 0.00119 µM
GI50 [5]: 0.00029 µM and 0.00117 µM
TGI [5]: 0.0164 µM and 0.0294 µM
GI50 [6]: 0.00241 µM and 0.0164 µM
TGI [6]: 0.393 µM and > 3.6 µM
GI50 [7]: 0.000194 µM and 0.00144 µM
TGI [7]: 0.309 µM and 0.672 µM

CC(C)C(=O)[O-].CC(C)C(=O)[O-].N.N.N.N.[Co+3].[O-][Cl+3]([O-])([O-])[O-]
GI50 [1]: > 100 µM
TGI [1]: > 100 µM
GI50 [2]: > 100 µM
TGI [2]: > 100 µM
GI50 [3]: > 100 µM
TGI [3]: > 100 µM
GI50 [4]: > 100 µM
TGI [4]: > 100 µM
GI50 [8]: > 100 µM
TGI [8]: > 100 µM
GI50 [5]: > 100 µM
TGI [5]: > 100 µM
GI50 [6]: > 100 µM
TGI [6]: > 100 µM
GI50 [7]: > 100 µM
TGI [7]: > 100 µM

CC(=O)[O-].[Zn].c1ccc(/C(=N\Nc2ccccn2)c2ccccn2)cc1
TGI [1]: 19.3 µM
TGI [2]: 0.272 µM
GI50 [3]: 0.332 µM
TGI [3]: 16.5 µM
GI50 [4]: 0.0319 µM
TGI [4]: 1.63 µM
GI50 [8]: 0.131 µM
TGI [8]: 2.06 µM
TGI [5]: 10.6 µM
TGI [6]: 5.73 µM
GI50 [7]: 0.421 µM
TGI [7]: 3.13 µM

CCOC(=O)c1ccc(N2C(=O)Cc3ccccc3C2=O)cc1
TGI [1]: > 100 µM
TGI [2]: > 100 µM
TGI [3]: > 100 µM
TGI [4]: > 100 µM
TGI [5]: > 100 µM
TGI [6]: > 100 µM
TGI [7]: > 100 µM

CCOC(=O)C1=C(Nc2ccc(Br)cc2)OC/C1=N\NC(=O)c1ccccc1O
TGI [1]: 33.1 µM
TGI [2]: > 100 µM
TGI [3]: > 50.9 µM
TGI [4]: > 49.4 µM
TGI [8]: 34.2 µM
TGI [5]: > 100 µM
TGI [6]: > 100 µM
TGI [7]: > 100 µM

CC(C)CC12CC3CCC(CNC1=O)C32C (stereo unspecified)
TGI [1]: > 100 µM
TGI [2]: > 100 µM
TGI [3]: > 100 µM
TGI [4]: > 100 µM
TGI [8]: > 100 µM
TGI [5]: > 100 µM
TGI [6]: > 100 µM
TGI [7]: > 100 µM

CCn1c(=O)c2ccccc2n2c(=O)c3cc4ccccc4cc3nc12
TGI [1]: > 100 µM
TGI [2]: > 100 µM
TGI [3]: > 100 µM
TGI [4]: > 100 µM
TGI [8]: > 100 µM
TGI [5]: > 100 µM
TGI [6]: > 100 µM
TGI [7]: > 100 µM

CCCCCCCCCCCCCCCCCCOc1ccccc1CC(=O)NCC[N+](C)(C)C
GI50 [9]: 4.27 µM
TGI [9]: 66.6 µM
GI50 [1]: 5.07 µM
TGI [1]: 35.4 µM
GI50 [3]: 17.9 µM
TGI [3]: 80.4 µM
GI50 [4]: 5.8 µM
TGI [4]: 40.8 µM
GI50 [8]: 2.67 µM
TGI [8]: 8.24 µM
GI50 [5]: 12.7 µM
TGI [5]: 44.7 µM
GI50 [7]: 3.34 µM
TGI [7]: 39.9 µM

S=c1sc2cscc2s1
TGI [1]: 97.7 µM
TGI [2]: > 100 µM
TGI [3]: 35.6 µM
TGI [4]: 41.1 µM
TGI [8]: 36.7 µM
TGI [5]: > 100 µM
TGI [6]: 46 µM
TGI [7]: 64.5 µM

CS/C(c1ccccc1)=[N+](\[O-])Cc1ccccc1
TGI [1]: > 100 µM
TGI [2]: > 100 µM
TGI [3]: > 100 µM
TGI [8]: > 100 µM
TGI [5]: > 100 µM
TGI [6]: > 100 µM
TGI [7]: > 100 µM

CC(=O)/C=C1\CC(=O)Nc2ccccc2N1
TGI [1]: > 100 µM
TGI [2]: > 100 µM
TGI [3]: > 100 µM
TGI [4]: > 100 µM
TGI [5]: > 100 µM
TGI [6]: > 100 µM
TGI [7]: > 100 µM

CCC1(NC(=O)c2cc(F)c(F)c(F)c2F)C(=O)NC(=O)N(C(C)C)C1=O (stereo unspecified)
GI50 [9]: 19.3 µM
TGI [9]: 48.7 µM
GI50 [1]: 16.5 µM
TGI [1]: 61.5 µM
GI50 [2]: 10.4 µM
TGI [2]: 28.7 µM
GI50 [3]: > 100 µM
TGI [3]: > 100 µM
GI50 [10]: 21.6 µM
TGI [10]: 63.6 µM
GI50 [4]: 20.1 µM
TGI [4]: 50.7 µM
GI50 [6]: 19.6 µM
TGI [6]: 42.2 µM
GI50 [7]: 19.1 µM
TGI [7]: 37 µM

COc1ccc2c(c1)c(-c1ccc(-c3cn(C)c4ccc(OC)cc34)[nH]1)cn2C
GI50 [1]: 4.84 µM
TGI [1]: 33 µM
GI50 [2]: 1.89 µM
TGI [2]: 4.35 µM
GI50 [3]: 1.42 µM
TGI [3]: 2.83 µM
GI50 [10]: 1.58 µM
TGI [10]: 5.71 µM
GI50 [4]: 2.26 µM
TGI [4]: 5.86 µM
GI50 [5]: 4 µM
TGI [5]: 22.2 µM
GI50 [6]: 3.34 µM
TGI [6]: 14.4 µM
GI50 [7]: 3.45 µM
TGI [7]: 18.1 µM

O=C(NC1C2CC3CC(C2)CC1C3)/C(Cl)=C1/Sc2ccccc2NC1=O (stereo unspecified)
TGI [1]: > 100 µM
TGI [2]: > 100 µM
TGI [3]: > 100 µM
TGI [4]: > 100 µM
TGI [8]: > 100 µM
TGI [6]: > 100 µM
TGI [7]: > 100 µM

OCC(O)C(O)C(O)c1nn(-c2ccccc2)c2nc3cc(Cl)c(Cl)cc3nc12 (stereo unspecified)
TGI [1]: > 100 µM
TGI [2]: > 100 µM
TGI [3]: > 100 µM
TGI [4]: > 100 µM
TGI [8]: > 100 µM
TGI [5]: 98 µM
TGI [6]: > 100 µM
TGI [7]: > 100 µM

Cc1ccc(C2=C(c3ccc(C)cc3)C(c3ccc(C)cc3)=C(c3ccc(C)cc3)C2=O)cc1
TGI [1]: > 100 µM
TGI [2]: > 100 µM
TGI [3]: > 100 µM
TGI [4]: > 100 µM
TGI [8]: > 100 µM
TGI [5]: > 100 µM
TGI [6]: > 100 µM
TGI [7]: > 100 µM

COc1cc(NC(=O)NCc2ccco2)ccc1-c1ccc(NC(=O)NCc2ccco2)cc1OC
GI50 [9]: 1.41 µM
TGI [9]: 3.98 µM
GI50 [1]: 2.99 µM
TGI [1]: 11 µM
GI50 [3]: 4.4 µM
TGI [3]: 55.8 µM
GI50 [10]: 3.34 µM
TGI [10]: 39.9 µM
GI50 [4]: 6.15 µM
TGI [4]: > 100 µM
GI50 [8]: 2 µM
TGI [8]: 5.33 µM
GI50 [6]: 3.22 µM
TGI [6]: 17.2 µM
GI50 [7]: 0.98 µM
TGI [7]: 13.6 µM

CC1(C)CC([P+](c2ccccc2)(c2ccccc2)c2ccccc2)=NN1
GI50 [9]: 13.7 µM
TGI [9]: > 100 µM
GI50 [1]: 4.28 µM
TGI [1]: > 100 µM
GI50 [2]: 6.47 µM
TGI [2]: > 100 µM
GI50 [3]: > 100 µM
TGI [3]: > 100 µM
GI50 [4]: 4.57 µM
TGI [4]: > 100 µM
GI50 [8]: 2.52 µM
TGI [8]: > 100 µM
GI50 [5]: 5.09 µM
TGI [5]: > 100 µM
GI50 [6]: 5.03 µM
TGI [6]: > 100 µM
GI50 [7]: 5.09 µM
TGI [7]: > 100 µM

From PubChem BioAssay (NCI)
